Twelve molecules from patent publication US11981680B2, “Substituted thienopyrroles as PAD4 inhibitors” (BRISTOL-MYERS SQUIBB COMPANY, priority 2018, dated 2024) can be followed below.

The target of this experiment is human PAD4 (hPAD4) (Homo sapiens (Human), UniProt Q9UM07). Description: RFMS Human PAD4 Functional Assay. Type of experiment: biochemical. The settings on record: rapid-fire mass spectrum (RFMS) assay; 5 nM hPAD4 enzyme, 250 μM BAEE, 30 min preincubation at 37° C. Here is the method: Compounds of the present invention were assayed as inhibitors of PAD4 using the assay protocol described below.
Chain of human PAD4 (hPAD4) (Q9UM07 whole entry): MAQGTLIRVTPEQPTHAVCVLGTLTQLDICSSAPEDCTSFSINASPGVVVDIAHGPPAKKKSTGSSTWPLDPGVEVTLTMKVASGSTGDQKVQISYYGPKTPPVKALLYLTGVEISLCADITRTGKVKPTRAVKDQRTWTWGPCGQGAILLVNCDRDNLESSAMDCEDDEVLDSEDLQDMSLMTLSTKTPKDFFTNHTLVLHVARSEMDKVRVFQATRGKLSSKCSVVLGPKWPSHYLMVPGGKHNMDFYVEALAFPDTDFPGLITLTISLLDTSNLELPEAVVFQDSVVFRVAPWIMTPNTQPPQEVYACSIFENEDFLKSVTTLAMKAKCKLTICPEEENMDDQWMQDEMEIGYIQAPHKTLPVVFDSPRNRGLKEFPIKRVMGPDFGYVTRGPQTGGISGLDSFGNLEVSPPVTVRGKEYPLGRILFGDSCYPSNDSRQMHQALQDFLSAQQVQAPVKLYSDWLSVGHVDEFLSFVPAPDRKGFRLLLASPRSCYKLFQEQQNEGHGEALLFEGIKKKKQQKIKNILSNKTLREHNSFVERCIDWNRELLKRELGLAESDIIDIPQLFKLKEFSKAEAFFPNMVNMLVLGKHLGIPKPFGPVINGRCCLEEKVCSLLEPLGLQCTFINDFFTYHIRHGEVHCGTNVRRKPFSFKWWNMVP
RFMS Human PAD4 Functional Assay:
Compounds were solubilized in 100% DMSO to achieve a10 mM compound concentration. Compound stock solutions were stored at RT. A series of dilutions were prepared in DMSO and mixed 8 times with 20 μL mixing volume. Final top concentration of compound in the assay is 50 μM. Final assay conditions were as follows: • Reaction volume: 26 μl • Assay buffer: 25 mM hepes, pH 7.5, 5 mM NaCl, 1 mM DTT, 0.2 mg/ml BSA, 0.01% CHAPS, 50 μM Calcium, and 5 μM TPEN • Final concentrations: 5 nM hPAD4 enzyme, 250 μM BAEE, and 0.5% DMSO • Total incubation time: 30 mins compound and enzyme preincubation at 37° C., 90 min enzyme/substrate reaction, 30 min reaction with phenyl glyoxal at 37° C. • Stop solution: 40 μl 5% TCA in ACN
0.13 μL of compound solution was added to 13 μL of 10 nM PAD4 in assay buffer. After 30 min 13 μl of 500 μM of BAEE was added in 25 mM hepes, pH 7.5, 5 mM NaCl, 1 mM DTT, 0.2 mg/ml BSA, 0.01% CHAPS, 50 μM Calcium, 5 μM TPEN was added and the reaction incubated for 90 min at 37° C. The enzymatic reaction was quenched by addition of 15 μl of 6.1N TCA, 100% Final Concentration is 20%, 35 μl of 8.5 mM phenyl glyoxal (final concentration 4 mM) is then added and the reaction is incubated for 30 min at 37° C.
After 30 minutes the plates are spun down to remove all precipitate. The enzyme reaction was quenched with an equal volume of methanol containing internal standard (modified citrulline). Samples were loaded onto the Rapid Fire RF300 system (Agilent) wherein they were first sipped for 1000 ms and then directly loaded to a C18 separations cartridge using a mixture of acetonitrile containing 0.01% formic acid for 3000 ms desalting. The flow rate of the mobile phase was 1.5 ml/min. Once the samples were eluted from the cartridge, a mobile phase of acetonitrile containing 0.01% formic acid was used to move the samples into the mass spectrometer for 4000 ms at a flow rate of 1.25 ml/min/Sciex API5500 triple quadrupole mass spectrometer (Applied Biosystems) equipped with ESI was used to analyze the peptidyl citrulline and internal standard ions.
MRM transition of product and internal standard were monitored at m/z 424.5 to 350.4 and m/z 293 to 247 respectively. The dwell time for each transition was set at 200 ms, and the ESI voltage was used at 5500 with a source temperature of 400° C. Extracted ion peaks for each transition were integrated using the Rapid Fire Integrator software. Peak area of analyte was normalized with internal standard.).

SMILES strings stand for the structures.

Molecule `COc1cc(C(=O)N2C[C@H]3CC[C@@H]2[C@@H]3N)cc2nc(-c3cc4scc(CCC(C)(C)O)c4n3CC3CC3)n(C)c12` [Example 6, ((1R,4R,7R)-7-amino-2-azabicyclo[2.2.1]heptan-2-yl)(2-(4-(cyclopropylmethyl)-3-(3-hydroxy-3-methylbutyl)-4H-thieno[3,2-b]pyrrol-5-yl)-7-methoxy-1-methyl-1H-benzo[d]imidazol-5-yl)methanone] came in with an IC50 of 0.032 µM.

Molecule `COc1cc(C(=O)N2C[C@H]3CC[C@@H]2[C@@H]3N)cc2nc(-c3cc4scc(-c5cnc(C#N)nc5)c4n3CC3CC3)n(C)c12` [Example 41, 5-(5-(5-((1R,4R,7R)-7-amino-2-azabicyclo[2.2.1]heptane-2-carbonyl)-7-methoxy-1-methyl-1H-benzo[d]imidazol-2-yl)-4-(cyclopropylmethyl)-4H-thieno[3,2-b]pyrrol-3-yl)pyrimidine-2-carbonitrile] registered an IC50 of 0.14 µM.

Regarding `COc1cc(C(=O)N2C[C@H]3CC[C@@H]2[C@@H]3N)cc2nc(-c3cc4scc(CC5CNC5)c4n3CC3CC3)n(C)c12` [Example 18, ((1R,4R,7R)-7-amino-2-azabicyclo[2.2.1]heptan-2-yl)(2-(3-(azetidin-3-ylmethyl)-4-(cyclopropylmethyl)-4H-thieno[3,2-b]pyrrol-5-yl)-7-methoxy-1-methyl-1H-benzo[d]imidazol-5-yl)methanone], the IC50 came to 0.165 µM. On to `COc1cc(C(=O)N2C[C@H]3CC[C@@H]2[C@@H]3N)cc2nc(-c3cc4scc(C5CCCNC5)c4n3CC3CC3)n(C)c12` (single isomer, unassigned) [Example 9], for which inhibition was half-maximal at 0.04 µM (IC50).

Molecule `COc1cc(C(=O)N2C[C@H]3CC[C@@H]2[C@@H]3N)cc2nc(-c3cc4scc(-c5ccn(C)n5)c4n3CC3CC3)n(C)c12` [Example 37, ((1R,4R,7R)-7-amino-2-azabicyclo[2.2.1]heptan-2-yl)(2-(4-(cyclopropylmethyl)-3-(1-methyl-1H-pyrazol-3-yl)-4H-thieno[3,2-b]pyrrol-5-yl)-7-methoxy-1-methyl-1H-benzo[d]imidazol-5-yl)methanone] had an IC50 of 0.054 µM. On to `COc1cc(C(=O)N2C[C@H](N)C[C@@H](F)C2)cc2nc(-c3cc4scc(-c5cnn(C)c5)c4n3CC3CC3)n(C)c12` [Example 33, ((3R,5R)-3-amino-5-fluoropiperidin-1-yl)(2-(4-(cyclopropylmethyl)-3-(1-methyl-1H-pyrazol-4-yl)-4H-thieno[3,2-b]pyrrol-5-yl)-7-methoxy-1-methyl-1H-benzo[d]imidazol-5-yl)methanone], for which the midpoint of inhibition, the IC50, lay at 0.05 µM. Molecule `COc1cc(C(=O)N2C[C@H]3CC[C@@H]2[C@@H]3N)cc2nc(-c3cc4scc(C5CC6(CNC6)C5)c4n3CC3CC3)n(C)c12` [Example 20, ((1R,4R,7R)-7-amino-2-azabicyclo[2.2.1]heptan-2-yl)(2-(4-(cyclopropylmethyl)-3-(2-azaspiro[3.3]heptan-6-yl)-4H-thieno[3,2-b]pyrrol-5-yl)-7-methoxy-1-methyl-1H-benzo[d]imidazol-5-yl)methanone] came in with an IC50 of 0.036 µM. Turning to `COc1cc(C(=O)N2C[C@H]3CC[C@@H]2[C@@H]3N)cc2nc(-c3cc4scc(CCCO)c4n3CC3CC3)n(C)c12` [Example 14, ((1R,4R,7R)-7-amino-2-azabicyclo[2.2.1]heptan-2-yl)(2-(4-(cyclopropylmethyl)-3-(3-hydroxypropyl)-4H-thieno[3,2-b]pyrrol-5-yl)-7-methoxy-1-methyl-1H-benzo[d]imidazol-5-yl)methanone], the IC50 is 0.056 µM.

`COc1cc(C(=O)N2C[C@H]3CC[C@@H]2[C@@H]3N)cc2nc(-c3cc4scc(-c5ccn(C(C)C)n5)c4n3CC3CC3)n(C)c12` [Example 34, ((1R,4R,7R)-7-amino-2-azabicyclo[2.2.1]heptan-2-yl)(2-(4-(cyclopropylmethyl)-3-(1-isopropyl-1H-pyrazol-3-yl)-4H-thieno[3,2-b]pyrrol-5-yl)-7-methoxy-1-methyl-1H-benzo[d]imidazol-5-yl)methanone]: it took 0.048 µM to reach half-maximal inhibition (IC50). For the molecule `COc1cc(C(=O)N2C[C@H]3CC[C@@H]2[C@@H]3N)cc2nc(-c3cc4sc(Br)cc4n3CC3CC3)n(C)c12` [Example 24, ((1R,4R,7R)-7-Amino-2-azabicyclo[2.2.1]heptan-2-yl)(2-(2-bromo-4-(cyclopropylmethyl)-4H-thieno[3,2-b]pyrrol-5-yl)-7-methoxy-1-methyl-1H-benzo[d]imidazol-5-yl)methanone], it took 0.041 µM to reach half-maximal inhibition (IC50). The molecule `COc1cc(C(=O)N2C[C@H]3CC[C@@H]2[C@@H]3N)cc2nc(-c3cc4scc(Nc5ccncc5)c4n3CC3CC3)n(C)c12` [Example 49, ((1R,4R,7R)-7-Amino-2-azabicyclo[2.2.1]heptan-2-yl)(2-(4-(cyclopropylmethyl)-3-(pyridin-4-ylamino)-4H-thieno[3,2-b]pyrrol-5-yl)-7-methoxy-1-methyl-1H-benzo[d]imidazol-5-yl)methanone] returned an IC50 of 0.062 µM. Molecule `COc1cc(C(=O)N2C[C@H]3CC[C@@H]2[C@@H]3N)cc2nc(-c3cc4scc(C5CNC5)c4n3CC3CC3)n(C)c12` [Example 16, ((1R,4R,7R)-7-amino-2-azabicyclo[2.2.1]heptan-2-yl)(2-(3-(azetidin-3-yl)-4-(cyclopropylmethyl)-4H-thieno[3,2-b]pyrrol-5-yl)-7-methoxy-1-methyl-1H-benzo[d]imidazol-5-yl)methanone] gave an IC50 of 0.127 µM.
